We go through three compounds from publication PMC7997574, “Lead Optimization of Benzoxazolone Carboxamides as Orally Bioavailable and CNS Penetrant Acid Ceramidase Inhibitors” (Journal of Medicinal Chemistry, 2020).

Where a name gives a salt, the structure may show the parent alone. Read-outs that look alike come from different tables or passages of the source. Some results are limits rather than exact numbers.

One data set deals with T1, AC (Homo sapiens, UniProt Q13510).
T1 sequence (Q13510 22-395): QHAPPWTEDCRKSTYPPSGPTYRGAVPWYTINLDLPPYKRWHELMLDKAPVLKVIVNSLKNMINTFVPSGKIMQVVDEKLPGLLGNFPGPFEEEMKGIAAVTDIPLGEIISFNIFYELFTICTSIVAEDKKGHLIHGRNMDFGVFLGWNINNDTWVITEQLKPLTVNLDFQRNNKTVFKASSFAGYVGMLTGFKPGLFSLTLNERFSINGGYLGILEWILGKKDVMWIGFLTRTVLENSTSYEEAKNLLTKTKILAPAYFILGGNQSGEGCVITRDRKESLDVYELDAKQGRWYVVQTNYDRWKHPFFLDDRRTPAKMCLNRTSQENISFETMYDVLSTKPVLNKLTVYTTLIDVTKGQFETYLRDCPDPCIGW
In words: Fluorogenic hAC assay on hAC-enriched lysate of HEK293 cells. The data set is classed as biochemical. Also noted: expressed in transfected cells. The method in brief: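 Lysosome-enriched lysate (2 μg protein) from HEK293 cells stably expressing hAC, in 25 mM NaOAc pH 4.5. Pre-incubated 10 min with compound, then incubated 3 h at 37 °C with fluorogenic substrate Rbm14–12 (5 μM final, ~KM). Fluorescence (355/460 nm) read after NaIO4 development; IC50 by nonlinear regression, mean of ≥3 experiments.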

Data set [1] can be described thus: In vitro plasma stability study. The data set is classed as in vitro ADME. As to conditions: mouse plasma; read-out: mouse plasma stability t1/2. The method, boiled down: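 Compound at 2 μM final incubated in mouse plasma at 37 °C for up to 120 min, sampled at 0–120 min and quenched in cold MeCN with internal standard. Remaining compound quantified by LC/MS/MS; t1/2 fitted from response vs time; mean of ≥2 experiments.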

Data set [2] can be described thus: Chemical stability assay in PBS pH 7.4. The data set is classed as physicochemical. As to conditions: phosphate-buffered saline, read-out: chemical stability t1/2. The procedure: Chemical stability of selected compounds was evaluated under physiological pH conditions (0.01 M phosphate-buffered saline, pH 7.4) for up to 8 h. The buffer was added with 10% MeCN. Stock solutions of each compound (10 mM) were freshly prepared in MeCN. Each compound was incubated at a final concentration of 1 μM in preheated buffer (37 °C). The sample solutions were divided into aliquots in glass vials (preheated at 37 °C) for each time point. The samples were maintained at 37 °C in the UPLC/MS autosampler during the study (no shaking). A reference solution of each compound (final concentration: 1 μM) in preheated MeCN was prepared from the stock solutions and maintained at 37 °C in the UPLC/MS autosampler during the study. For each time point, the samples were analyzed directly by LC/MS without any further sample preparation. The samples were analyzed by integrating the corresponding MRM peak areas. The relative compound concentration was calculated by dividing the peak area at each time point by the peak area at t = 0 min. The reference solution was analyzed at the beginning (t = 0 min) and at the end of the study (t = 8 h). The apparent half-life (t1/2) of the disappearance of the compound was calculated using the best fitting equation by GraphPad Prism (GraphPad Software, Inc., USA). The analyses were performed on a Waters ACQUITY UPLC/MS TQD system consisting of a triple quadrupole detector (TQD) MS equipped with an ESI interface and a photodiode array detector. The analyses were run on an ACQUITY UPLC BEH C18 1.7 μm 2.1 × 50 mm column with a VanGuard BEH C18 1.7 μm preolumn at 40 °C. For each compound, the appropriate mobile phase was chosen. ESI was applied in positive mode. Values are the mean of at least two independent experiments performed in two technical replicates.

Data set [3] in a line: Aqueous kinetic solubility assay. As to conditions: PBS, pH 7.4. The class given is physicochemical. The method, boiled down: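 Kinetic solubility from 10 mM MeCN stock spiked into PBS pH 7.4 at 250 μM target, shaken 1 h at 25 °C, then centrifuged. Dissolved compound in supernatant quantified by UPLC/MS with UV at 215 nm; mean of ≥2 experiments.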
Setting [4] is: supplementary csv, read-out: hAC, IC50.

The IC50 is the point on the concentration scale where inhibition reaches its midpoint. One may read the solubility as how much of the substance goes into solution per volume. A high value points to a readily soluble substance. As to `O=C(NCCCCc1ccccc1)n1c2c(oc1=O)CCNC2` [12b, 2-Oxo-N-(4-phenylbutyl)-4,5,6,7-tetrahydrooxazolo[4,5-c]pyridine-3-carboxamide Hydrochloride], the IC50 at AC (setting [4]) came out at 247 ± 156 nM. Moreover, in data set [1], the half-life at 2 μM is above 2 h. Also, the half-life at 1 μM in data set [2] (PBS at pH 7.4) was above 8 h. The compound also registered a solubility at 1 h in data set [3] of 82 µM.
Regarding `O=C(NCCCCc1ccccc1)n1c2c(oc1=O)CNCC2` [17b, 2-Oxo-N-(4-phenylbutyl)-4,5,6,7-tetrahydrooxazolo[5,4-c]pyridine-1-carboxamide Hydrochloride], the IC50 at AC (setting [4]) was determined as 341 ± 12 nM. Further, the half-life at 2 μM in data set [1] is above 2 h. Moreover, the half-life at 1 μM in data set [2] (PBS at pH 7.4) is above 8 h. Moreover, the solubility at 1 h in data set [3] is 230 µM.
As for `O=C(NCCCCc1ccccc1)n1c(=O)oc2ccncc21` [8a, 2-Oxo-N-(4-phenylbutyl)oxazolo[4,5-c]pyridine-3-carboxamide], the IC50 at AC (read-out: hAC IC50) is 6 nM. The half-life at 1 μM in data set [2] (PBS, pH 7.4) is below 0.25 h.
